What was measured:
[1] = Persistence of stanozolol in the joint / synovial fluid after intrasynovial injection; format: in vivo, horses and humans
From the text: A single intrasynovial injection of said formulations allows the stanozolol to be brought up to and maintained at pharmacologically active concentrations in the joint for 6-7 days, a period which is long enough to produce evident clinical benefits and fully compatible with long-term treatments.
Two examples of formulation of a typical preparation containing stanozolol administrable by the intrasynovial route to horses and humans, which remains in the synovial fluid for 5-7 days, one set out below: • a) Active ingredient: micronised stanozolol (having a prevalent population of particles with a diameter of less than 20 µm) 5 mg; Water for injectables q.s. to 1 ml. • b) Active ingredient: Micronised Stanozolol: (having a prevalent population of particles with diameter of less than 20 µm) 5 mg/ml

Solubility in water = format: physicochemical; conditions: crystalline substance
From the text: The formulations according to the invention of stanozolol in an aqueous carrier are therefore aqueous suspensions, and it is necessary to prevent the suspended crystals of the drug from causing mechanical lesions such as abrasions and erosions despite the pressures and friction generated by the movement of the joint on the surfaces of the cartilage and synovial membrane.

Question: What does the source list for `C[C@]12Cc3c[nH]nc3C[C@@H]1CC[C@@H]1[C@@H]2CC[C@@]2(C)[C@H]1CC[C@]2(C)O` [stanozolol]?
Answer: maintained at pharmacologically active concentrations in the joint ([1]; single intrasynovial injection of the micronised aqueous suspension formulations): 6-7 days; remains in the synovial fluid ([1]; typical preparation with micronised stanozolol 5 mg/ml, intrasynovial route, horses and humans): 5 to 7 days; solubility in water (Solubility in water): insoluble in water
